These results are taken from US20160281077A1, “MEDIUM AND METHOD FOR CULTURING EUGLENA AND METHOD FOR REDUCING PHOTOINHIBITION IN EUGLENA” (Euglena Co., Ltd., priority 2015, published 2016).

The test system of assay [1] is Euglena gracilis Z. Briefly: Study 3: photocurrent after addition of Euglena and of electron transport inhibitor DBMIB. In kind it is cell-based. To be noted: DBMIB 100 μM added after about 37 minutes to PMF 3 g/L medium with Euglena; current before about 8 μA. How it is done:
To determine whether the effect of the medium supplemented with PMF in facilitating the proliferation of Euglena in electrochemical culture as shown by the Studies 1 and 2 is attributed to extracellular transfer of electrons from Euglena, DBMIB (2,5-dibromo-3-methyl-6-isopropyl-p-benzoquinone), which is an electron transport inhibitor, was added to the culture system that included PMF, and a change in photocurrent was measured.
DBMIB binds to the plastoquinone-binding site of the cytochrome b6f and prevents the oxidation of reduced plastoquinone thereby inhibiting electron transport. DBMIB inhibits the transfer of electrons from plastoquinone to the photosystem I and thus is used to measure the activity of the photosystem II.
In the Study 3, the CM medium having a PMF concentration of 3 g/L was placed into the same three-electrode electrochemical cell as the Study 1. Then, the electrochemical cell was placed into a shielded enclosure to measure the photocurrent.
After about 21 minutes from the start of the measurement, the precultured Euglena was added at an initial density (OD800) of 0.5. After about 37 minutes from the start of the measurement, DBMIB was added at a concentration of 100 μM to the medium.

Assay [2] deals with Euglena gracilis Z. Briefly: Study 2 and reference study: proliferation (cell density) of Euglena under strong or weak light. In kind it is cell-based. To be noted: 0.5 mM ascorbic acid in place of PMF. How it is done:
The CM medium having a PMF concentration of 0.5 g/L was placed into the same three-electrode electrochemical cell as the Study 1.
To the medium, the precultured Euglena was added at an initial density (OD800) of 0.05 and electrochemically cultured under strong light having an intensity of 5000 lux, which is about one tenth of the maximum intensity of sunlight. After 0, 24, 48, 76, 96, and 148 hours from the start of the culture, the cell density was determined (Example 2). The voltage applied was +0.6 V vs. SHE.
A similar study was performed on Euglena non-electrochemically cultured in the medium that included no PMF (Comparative Example 3).
A similar study was also performed on Euglena electrochemically cultured in the medium that included PMF (Comparative Example 4) and Euglena electrochemically cultured in the medium that included no PMF (Comparative Example 5) under weak light having an intensity of 1000 lux, which is about one fiftieth of the maximum intensity of sunlight.
In the study, proliferation of Euglena that were cultured in the medium supplemented with or without 0.5 mM of ascorbic acid in place of PMF used in the Study 2 under strong light or under weak light was compared. The study was performed in the same manner as in the Study 2 except that 0.5 mM of ascorbic acid was added in place of PMF.

In the case of `CC1=C(Br)C(=O)C(C(C)C)=C(Br)C1=O` [DBMIB, 2,5-dibromo-3-methyl-6-isopropyl-p-benzoquinone], the “current after addition of DBMIB” value with Euglena gracilis Z [1] is listed as “about 4 μA”.

In the case of `O=C1O[C@H]([C@@H](O)CO)C(O)=C1O` [ascorbic acid], the “facilitating the proliferation of Euglena under strong light” value in the assay on Euglena gracilis Z [2] (strong light (5000 lux)) is reported as “effective in facilitating the proliferation of Euglena”. Further, in the assay with Euglena gracilis Z [2] (weak light (1000 lux)), the “facilitating the proliferation of Euglena under weak light” value is recorded as “not effective in facilitating the proliferation”.
